Measured values: the NIST ThermoML archive (doi:10.1021/je400004j)
Numbers after ± are expanded uncertainties.

Test: xn = mol fraction of the nth substance listed
Details: 298.15 K, Ring tensiometer

Structure (SMILES) | surface tension liquid-gas (x1 = 0.1) | surface tension liquid-gas (x1 = 0.2) | surface tension liquid-gas (x1 = 0.3) | surface tension liquid-gas (x1 = 0.4) | surface tension liquid-gas (x1 = 0.5) | surface tension liquid-gas (x1 = 0.6) | surface tension liquid-gas (x1 = 0.7) | surface tension liquid-gas (x1 = 0.8) | surface tension liquid-gas (x1 = 0.9) | surface tension liquid-gas (x1 = 1) | surface tension liquid-gas (x1 = 0.02) | surface tension liquid-gas (x1 = 0.04) | surface tension liquid-gas (x1 = 0.08) | surface tension liquid-gas (x1 = 0.12) | surface tension liquid-gas (x1 = 0.14)
CCCCn1cc[n+](CC)c1.CCOP(=O)([O-])OCC [1-butyl-3-ethyl-1H-imidazol-3-ium diethyl phosphate] + CCO | 22.6 ± 0.3 mN/m | 23.6 ± 0.4 mN/m | 24.7 ± 0.4 mN/m | 26.1 ± 0.4 mN/m | 27.6 ± 0.4 mN/m | 28.5 ± 0.4 mN/m | 29.5 ± 0.4 mN/m | 30.5 ± 0.4 mN/m | 31.4 ± 0.4 mN/m | 32.2 ± 0.5 mN/m | – | – | – | – | –
CCCCn1cc[n+](CC)c1.CCOP(=O)([O-])OCC [1-butyl-3-ethyl-1H-imidazol-3-ium diethyl phosphate] + CO | 26.1 ± 0.4 mN/m | 28.4 ± 0.4 mN/m | 29.8 ± 0.4 mN/m | 30.6 ± 0.4 mN/m | 30.9 ± 0.4 mN/m | 31.1 ± 0.4 mN/m | 31.4 ± 0.4 mN/m | 32.3 ± 0.5 mN/m | 32.2 ± 0.5 mN/m | 32.2 ± 0.5 mN/m | – | – | – | – | –
CCCCn1cc[n+](CC)c1.CCOP(=O)([O-])OCC [1-butyl-3-ethyl-1H-imidazol-3-ium diethyl phosphate] + O | 35.9 ± 0.5 mN/m | 33.1 ± 0.5 mN/m | 32.9 ± 0.5 mN/m | 32.8 ± 0.5 mN/m | 32.6 ± 0.5 mN/m | 32.5 ± 0.5 mN/m | 32.3 ± 0.5 mN/m | 32.3 ± 0.5 mN/m | 32.2 ± 0.5 mN/m | 32.2 ± 0.5 mN/m | 47.4 ± 1.6 mN/m | 42.4 ± 0.6 mN/m | 37.8 ± 0.6 mN/m | 35.5 ± 0.5 mN/m | 35 ± 0.5 mN/m
CCCCn1cc[n+](C)c1.COP(=O)([O-])OC [1-butyl-3-methyl-1H-imidazolium dimethylphosphate] + CCO | 22.8 ± 0.3 mN/m | 23.6 ± 0.4 mN/m | 25 ± 0.4 mN/m | 26.9 ± 0.4 mN/m | 28.5 ± 0.4 mN/m | 30.5 ± 0.4 mN/m | 32.3 ± 0.5 mN/m | 34 ± 0.5 mN/m | 36 ± 0.5 mN/m | 38 ± 0.5 mN/m | – | – | – | – | –
CCCCn1cc[n+](C)c1.COP(=O)([O-])OC [1-butyl-3-methyl-1H-imidazolium dimethylphosphate] + CO | 26.5 ± 0.4 mN/m | 29.2 ± 0.4 mN/m | 30.8 ± 0.4 mN/m | 32.3 ± 0.5 mN/m | 33.8 ± 0.5 mN/m | 35.1 ± 0.5 mN/m | 35.9 ± 0.5 mN/m | 38 ± 0.5 mN/m | 38.1 ± 0.5 mN/m | 38 ± 0.5 mN/m | – | – | – | – | –
CCCCn1cc[n+](C)c1.COP(=O)([O-])OC [1-butyl-3-methyl-1H-imidazolium dimethylphosphate] + O | 42.1 ± 0.6 mN/m | 40.9 ± 0.6 mN/m | 40.2 ± 0.5 mN/m | 39.4 ± 0.5 mN/m | 38.8 ± 0.5 mN/m | 38.3 ± 0.5 mN/m | 38.2 ± 0.5 mN/m | 38 ± 0.5 mN/m | 38.1 ± 0.5 mN/m | 38 ± 0.5 mN/m | – | – | – | – | –
CCCCOP(=O)([O-])OCCCC.CCCCn1cc[n+](C)c1 [1-butyl-3-methylimidazolium dibutyl phosphate] + CCO | 22.5 ± 0.3 mN/m | 23.5 ± 0.4 mN/m | 24.5 ± 0.4 mN/m | 25.9 ± 0.4 mN/m | 26.6 ± 0.4 mN/m | 27.3 ± 0.4 mN/m | 27.8 ± 0.4 mN/m | 28.3 ± 0.4 mN/m | 28.8 ± 0.4 mN/m | 29.4 ± 0.4 mN/m | – | – | – | – | –
CCCCOP(=O)([O-])OCCCC.CCCCn1cc[n+](C)c1 [1-butyl-3-methylimidazolium dibutyl phosphate] + CO | 26.4 ± 0.4 mN/m | 27.5 ± 0.4 mN/m | 28.1 ± 0.4 mN/m | 28.5 ± 0.4 mN/m | 28.8 ± 0.4 mN/m | 28.9 ± 0.4 mN/m | 29.1 ± 0.4 mN/m | 29.4 ± 0.4 mN/m | 29.5 ± 0.4 mN/m | 29.4 ± 0.4 mN/m | – | – | – | – | –
CCCCOP(=O)([O-])OCCCC.CCCCn1cc[n+](C)c1 [1-butyl-3-methylimidazolium dibutyl phosphate] + O | 28.2 ± 0.6 mN/m | 28.9 ± 0.4 mN/m | 29 ± 0.4 mN/m | 29.1 ± 0.4 mN/m | 29.2 ± 0.4 mN/m | 29.3 ± 0.4 mN/m | 29.3 ± 0.4 mN/m | 29.4 ± 0.4 mN/m | 29.5 ± 0.4 mN/m | 29.4 ± 0.4 mN/m | – | – | – | – | –
CCOP(=O)([O-])OCC.CCn1cc[n+](C)c1 [1-ethyl-3-methylimidazolium diethyl phosphate] + CCO | 22.6 ± 0.3 mN/m | 23.6 ± 0.4 mN/m | 25 ± 0.4 mN/m | 26.6 ± 0.4 mN/m | 28.2 ± 0.4 mN/m | 30.1 ± 0.4 mN/m | 31.6 ± 0.5 mN/m | 33.2 ± 0.5 mN/m | 34.8 ± 0.5 mN/m | 37.1 ± 0.5 mN/m | – | – | – | – | –
CCOP(=O)([O-])OCC.CCn1cc[n+](C)c1 [1-ethyl-3-methylimidazolium diethyl phosphate] + CO | 26.4 ± 0.4 mN/m | 28.9 ± 0.4 mN/m | 30.4 ± 0.4 mN/m | 31.9 ± 0.5 mN/m | 33.5 ± 0.5 mN/m | 34.7 ± 0.5 mN/m | 35.3 ± 0.5 mN/m | 37.2 ± 0.5 mN/m | 37.3 ± 0.5 mN/m | 37.1 ± 0.5 mN/m | – | – | – | – | –
